According to patent US9434711B2 (Janssen Pharmaceutica, NV, priority 2007, dated 2016):
Like-named read-outs stand apart in the source and are kept apart here.

Molecular target: canine TRPM8 (Canis lupus familiaris, UniProt Q1A7N1)
Experiment: In Vitro Canine TRPM8 Functional Assay (Ca2+ fluorescence, icilin activation)
Format: cell-based
Settings: for IC50: read-out: IC50; for inhibition at 0.5 µM: compound at 0.5 μM, read-out: % Inh @ 0.5
Procedure: The functional activity of compounds of the formula (I) was determined by measuring changes in intracellular calcium concentration using a Ca^2+-sensitive fluorescent dye. The changes in fluorescent signal were monitored by a fluorescence plate reader, either a FLIPR™ (Molecular Devices) or FDSS (Hamamatsu).
At 24 hrs prior to assay, HEK293 cells stably expressing canine TRPM8 were seeded in culture medium in black wall, clear-base poly-D-lysine coated 384-well plates (BD Biosciences, NJ, USA) and grown overnight in 5% CO2 at 37° C. On assay day, growth media was removed and cells were loaded with Calcium 3 Dye (Molecular Devices) for 35 min at 37° C., under 5% CO2 and then for 25 min at room temperature and atmosphere. Subsequently, cells were tested for agonist-induced increases in intracellular Ca^2+ levels using FLIPR™ or FDSS. Cells were challenged with a compound of the Formula (I) (at varying concentrations) and intracellular Ca^2+ was measured for 5 min prior to the addition of icilin to all wells to achieve a final concentration that produces approximately an 80% maximal response. EC50 or IC50 values for compounds of the present invention were determined from eight-point dose-response studies. Curves were generated using the average of quadruplicate wells for each data point.

[1] = HEK293 cells stably expressing canine TRPM8, icilin activation, eight-point dose-response
[2] = compound at 0.2 μM, canine TRPM8, icilin activation, read-out: % Inh @ 0.2
[3] = 0.2 μM compound, HEK293 cells stably expressing canine TRPM8, icilin activation, read-out: % Inh @ 0.2
[4] = HEK293 cells stably expressing canine TRPM8, icilin activation, average of two or more determinations
[5] = canine TRPM8, icilin activation

Chain of canine TRPM8 (Q1A7N1 1-1104): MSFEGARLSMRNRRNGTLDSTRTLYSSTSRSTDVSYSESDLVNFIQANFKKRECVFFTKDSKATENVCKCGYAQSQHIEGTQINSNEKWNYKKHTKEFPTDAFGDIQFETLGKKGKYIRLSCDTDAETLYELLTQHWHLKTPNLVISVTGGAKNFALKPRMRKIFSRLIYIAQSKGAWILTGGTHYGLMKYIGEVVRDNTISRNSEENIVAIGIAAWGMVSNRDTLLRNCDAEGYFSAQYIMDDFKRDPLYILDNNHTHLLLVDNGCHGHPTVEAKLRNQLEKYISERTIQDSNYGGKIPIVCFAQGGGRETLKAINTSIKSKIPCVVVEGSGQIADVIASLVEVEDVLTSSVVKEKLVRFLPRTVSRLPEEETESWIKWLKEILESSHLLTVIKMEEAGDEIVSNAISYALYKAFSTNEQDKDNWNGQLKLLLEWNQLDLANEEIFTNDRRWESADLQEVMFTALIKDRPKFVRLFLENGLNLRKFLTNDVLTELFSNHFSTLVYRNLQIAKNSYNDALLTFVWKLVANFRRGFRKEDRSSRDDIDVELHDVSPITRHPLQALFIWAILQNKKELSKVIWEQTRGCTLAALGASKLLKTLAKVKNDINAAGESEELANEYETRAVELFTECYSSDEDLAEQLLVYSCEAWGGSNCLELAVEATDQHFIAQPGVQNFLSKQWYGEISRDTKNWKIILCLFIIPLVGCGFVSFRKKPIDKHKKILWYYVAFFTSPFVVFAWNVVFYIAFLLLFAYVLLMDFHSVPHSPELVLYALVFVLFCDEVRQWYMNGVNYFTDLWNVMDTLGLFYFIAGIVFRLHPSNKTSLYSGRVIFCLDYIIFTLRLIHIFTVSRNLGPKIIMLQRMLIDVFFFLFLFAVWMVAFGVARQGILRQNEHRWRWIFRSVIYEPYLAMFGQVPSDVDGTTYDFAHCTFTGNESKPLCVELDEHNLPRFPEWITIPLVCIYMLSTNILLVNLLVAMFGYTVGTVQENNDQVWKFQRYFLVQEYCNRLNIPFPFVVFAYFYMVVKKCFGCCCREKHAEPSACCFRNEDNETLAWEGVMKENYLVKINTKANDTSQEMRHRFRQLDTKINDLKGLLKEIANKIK

Compound	IC50 [1]	inhibition at 0.2 µM [2]	also measured
CC(=O)c1ccc(S(=O)(=O)N(Cc2ccc(F)c(C(F)(F)F)c2)c2sc3ccccc3c2C(C)(C)O)cc1 [Compound 389, 4-Acetyl-N-(4-fluoro-3-trifluoromethylbenzyl)-N-(3-(1-hydroxy-1-methyl-ethyl)-benzo[b]thiophen-2-yl)-benzenesulfonamide]	10 nM	97%	
Cc1c(N(CCCF)S(=O)(=O)c2ccc(F)c(F)c2)sc2ccccc12 [Compound 831, N-(3-Fluoro-propyl)-N-(3-methyl-benzo[b]thiophen-2-yl)-3,4-difluoro-benzenesulfonamide]			inhibition at 0.2 µM [3]: 91%; IC50 [4]: 50 nM
Cc1c(N(CCCCC(F)(F)F)S(=O)(=O)c2ccc(N3CCOCC3)cc2)sc2ccccc12 [Compound 750, N-(3-Methyl-benzo[b]thiophen-2-yl)-N-(5,5,5-trifluoro-pentyl)-4-morpholino-benzenesulfonamide]	9.2 nM	101%	
Cc1c(N(Cc2ccc(F)c(C(F)(F)F)c2)S(=O)(=O)c2ccc(C(=O)O)cc2F)sc2ccccc12 [Compound 592, N-(3-Methyl-benzo[b]thiophen-2-yl)-N-(4-fluoro-3-trifluoromethyl-benzyl)-2-fluoro-4-carboxy-benzenesulfonamide]	1.8 nM	101%	
CC(=O)c1c(N(CCCCC(F)(F)F)S(=O)(=O)c2ccc(C#N)cc2)sc2ccccc12 [Compound 773, N-(3-Acetyl-benzo[b]thiophen-2-yl)-N-(5,5,5-trifluoro-pentyl)-4-cyano-benzenesulfonamide]	16.7 nM	94%	
CC1=C(N(CCC2CC2)S(=O)(=O)c2ccccc2)S(=O)(=O)c2ccccc21 [Compound 618, N-(2-Cyclopropyl-ethyl)-N-(3-methyl-1,1-dioxo-benzo[b]thiophen-2-yl)-benzenesulfonamide]	10.4 nM	101%	
O=S(=O)(c1cccc(O)c1)N(Cc1ccc(F)c(C(F)(F)F)c1)c1sc2ccccc2c1Cl [Compound 288, N-(3-Chloro-benzo[b]thiophen-2-yl)-N-(4-fluoro-3-trifluoromethyl-benzyl)-3-hydroxy-benzenesulfonamide]	20 nM	90%	
Cc1c(N(Cc2ccc(F)c(F)c2)S(=O)(=O)c2cccc3cccnc23)sc2ccccc12 [Compound 20, N-(3,4-Difluoro-benzyl)-N-(3-methyl-benzo[b]thiophen-2-yl)-quinoline-8-sulfonamide]	6 nM		inhibition at 0.5 µM [5]: 98%
Cc1c(N(CCCC(F)(F)F)S(=O)(=O)c2ccc3[nH]c(=O)oc3c2)sc2ccccc12 [Compound 384, N-(3-Methyl-benzo[b]thiophen-2-yl)-N-(4,4,4-trifluoro-butyl)-2-oxo-2,3-dihydro-benzooxazol-6-yl-sulfonamide]	17 nM	96%	
Cc1c(N(CCCC(F)(F)F)S(=O)(=O)c2ccc(C(C)(C)O)cc2)sc2ccccc12 [Compound 371, N-(3-Methyl-benzo[b]thiophen-2-yl)-N-(4,4,4-trifluoro-butyl)-4-(1-hydroxy-1-methyl-ethyl)-benzenesulfonamide]	9 nM	94%	
CCS(=O)(=O)N(Cc1ccc(F)c(OC)c1)c1sc2ccccc2c1C(C)O (stereo not drawn) [Compound 827, N-(4-Fluoro-3-methoxybenzyl)-N-[3-(1-hydroxyethyl)-benzo[b]thiophen-2-yl]-ethanesulfonamide]			inhibition at 0.2 µM [3]: 101%; IC50 [4]: 6.6 nM
O=c1[nH]c(-c2ccc(S(=O)(=O)N(CCC3CC3)c3cc4ccccc4s3)cc2)no1 [Compound 612, N-(Benzo[b]thiophen-2-yl)-N-(cyclopropyl-ethyl)-4-(5-oxo-4,5-dihydro-[1,2,4]oxadiazol-3-yl)-benzenesulfonamide]	53.7 nM	97%	
Cc1c(N(Cc2ccc(F)c(C(F)(F)F)c2)S(=O)(=O)CCBr)sc2ccccc12 [Compound 797, N-(4-Fluoro-3-trifluoromethyl-benzyl)-N-(3-methyl-benzo[b]thiophen-2-yl)-2-bromo-ethane-1-sulfonamide]			inhibition at 0.2 µM (HEK293, read-out: % Inh @ 0.2 (μM)): 102%; IC50 [4]: 4.8 nM
Cc1c(N(Cc2ccc(F)c(C(F)(F)F)c2)S(C)(=O)=O)sc2ccccc12 [Compound 368, N-(4-Fluoro-3-trifluoromethyl-benzyl)-N-(3-methyl-benzo[b]thiophen-2-yl)-methanesulfonamide]	18 nM	96%	
CCS(=O)(=O)N(CCN1CCOCC1)c1sc2ccccc2c1C [Compound 113, N-(3-Methyl-benzo[b]thiophen-2-yl)-N-(2-morpholin-4-yl-ethyl)-ethanesulfonamide]		19%	
Cc1c(N(Cc2ccc(F)c(C(F)(F)F)c2)S(=O)(=O)CCC(=O)O)sc2ccccc12 [Compound 510, N-(4-Fluoro-3-trifluoromethyl-benzyl)-N-(3-methyl-benzo[b]thiophen-2-yl)-2-carboxy-ethanesulfonamide]	11 nM	102%	
Cc1c(N(Cc2ccc(F)c(C(F)(F)F)c2)S(=O)(=O)c2ccc(-c3cnco3)cc2)sc2ccccc12 [Compound 334]	6 nM	98%	
CC(C)c1c(N(CCC2CC2)S(=O)(=O)c2ccccc2)sc2ccccc12 [Compound 548, N-(2-Cyclopropyl-ethyl)-N-(3-isopropyl-benzo[b]thiophen-2-yl)-benzenesulfonamide]	28.9 nM	102%	
COc1ccc(S(=O)(=O)N(Cc2ccc(F)c(C(F)(F)F)c2)c2sc3ccccc3c2C)c2cccnc12 [Compound 355]	29.6 nM		% Inh @ 0.2 (μM) (compound at 0.2 μM, canine TRPM8, icilin activation): 92%
Cc1c(N(Cc2ccc(F)c(F)c2)S(=O)(=O)Cc2ccccc2)sc2ccccc12 [Compound 126, N-(3,4-Difluoro-benzyl)-N-(3-methyl-benzo[b]thiophen-2-yl)-phenyl-methanesulfonamide]			inhibition at 0.5 µM [5]: 45%
CCCCN(c1cc2ccccc2s1)S(=O)(=O)c1ccc(N2CCOCC2)cc1 [Compound 446, N-Benzo[b]thiophen-2-yl-N-(butyl)-4-morpholin-4-yl-benzenesulfonamide]	96 nM	82%	
Cc1c(N(Cc2ccc(F)c(C(F)(F)F)c2)S(=O)(=O)CCCC(=O)O)sc2ccccc12 [Compound 765, N-(4-Fluoro-3-trifluoromethyl-benzyl)-N-(3-methyl-benzo[b]thiophen-2-yl)-3-carboxy-propanesulfonamide]	13.6 nM	101%	

Further lines, with some results ahead:

IC50 [1]	inhibition at 0.2 µM [2]	Compound	also measured
17.1 nM	102%	COCCN(c1sc2ccccc2c1Br)S(=O)(=O)c1ccccc1 [Compound 252, N-(3-Bromo-benzo[b]thiophen-2-yl)-N-(2-methoxy-ethyl)-benzenesulfonamide]	
10 nM	102%	O=S(=O)(c1cccnc1)N(Cc1ccc(OC(F)(F)F)cc1)c1sc2ccccc2c1Br [Compound 323, N-(3-Bromo-benzo[b]thiophen-2-yl)-N-(4-trifluoromethoxy-benzyl)-pyridin-3-ylsulfonamide]	
4 nM		O=S(=O)(c1ccccc1)N(Cc1ccc(F)cc1)c1sc2ccccc2c1Cl [Compound 4, N-(3-Chloro-benzo[b]thiophen-2-yl)-N-(4-fluoro-benzyl)-benzenesulfonamide]	inhibition at 0.5 µM [5]: 97%
10 nM		COc1ccc(S(=O)(=O)N(Cc2ccc(F)c(C(F)(F)F)c2)c2sc3ccccc3c2Br)cc1 [Compound 182, N-(3-Bromo-benzo[b]thiophen-2-yl)-N-(4-fluoro-3-trifluoromethyl-benzyl)-4-methoxy-benzenesulfonamide]	inhibition at 0.5 µM [5]: 99%
60 nM	82%	COC(=O)c1ccc(S(=O)(=O)N(Cc2ccc(F)c(C(F)(F)F)c2)c2sc3ccccc3c2Br)cc1 [Compound 192, N-(3-Bromo-benzo[b]thiophen-2-yl)-N-(4-fluoro-3-trifluoromethyl-benzyl)-4-carbomethoxy-benzenesulfonamide]	
12.9 nM	100%	CCOC(=O)CCCCCN(c1sc2ccccc2c1Br)S(=O)(=O)c1ccccc1 [Compound 230, N-(3-Bromo-benzo[b]thiophen-2-yl)-N-(5-carboethoxy-pentyl)benzenesulfonamide]	
20 nM		COc1ccc(S(=O)(=O)N(Cc2ccc(F)c(F)c2)c2sc3ccccc3c2C)cc1 [Compound 26, N-(3,4-Difluoro-benzyl)-N-(3-methyl-benzo[b]thiophen-2-yl)-4-methoxy-benzenesulfonamide]	inhibition at 0.5 µM [5]: 98%
38.2 nM	95%	O=S(=O)(c1ccccc1)N(CC(F)F)c1sc2ccccc2c1Br [Compound 242, N-(3-Bromo-benzo[b]thiophen-2-yl)-N-(2,2-difluoro-ethyl)-benzenesulfonamide]	
31.9 nM		COc1ccc(CN(c2sc3ccccc3c2Br)S(=O)(=O)c2ccccc2)cc1 [Compound 164, N-(3-Bromo-benzo[b]thiophen-2-yl)-N-(4-methoxy-benzyl)-benzenesulfonamide]	inhibition at 0.5 µM [5]: 97%
